According to patent publication US8143282B2, “Heterocyclic compounds” (S*BIO Pte Ltd., priority 2005, dated 2012):

Tests used:
[1] = test system: Colo205 cells; assay: Cell-based proliferation assay for GI50 (CyQUANT), Colo205; conditions: Homo sapiens, COLO 205, 96 h treatment, read-out: Cellular or Growth Inhibition Activity in Colo205 cells, GI50
Method in brief: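 Cells were seeded at 1000 (PC3), 5000 (Colo205), 6000 (HCT116) or 4000 (HEP3B) per well and left 24 h at 37° C. Compound treatment lasted 96 h. Growth was read by CyQUANT, and GI50 (50% growth inhibition) came from dose-response curves.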

[2] = test system: A2780; assay: Cell-based proliferation assay for GI50 (CyQUANT), A2780; conditions: Homo sapiens; A2780, 96 h treatment; read-out: Cellular or Growth Inhibition Activity, GI50, A2780
Experimental: Human colon cancer cell lines (Colo205, HCT116), Ovarian cancer cell line (A2780), Hepatoma cell line (HEP3B), Prostate cancer cell line (PC3) were obtained from ATCC or ECACC. Colo205 cells were cultivated in RPMI 1640 containing 2 mM L-Glutamine, 5% FBS, 1.0 mM Na Pyruvate, 1 U/ml of penicillin and 1 μg of streptomycin. HCT116 cells were cultivated in McCoy's containing RPMI 1640 containing 2 mM L-Glutamine, 5% FBS, 1 U/ml of penicillin and 1 μg of streptomycin. A2780 cells were cultivated in RPMI 1640 containing 2 mM L-Glutamine, 5% FBS, 1 U/ml of penicillin and 1 μg of streptomycin. HEP3B cells were cultivated in EMEM containing 2 mM L-glutamine, 5% FBS, 1% non essential amino acid, 1 mM Na Pyruvate, 1 U/ml of penicillin and 1 μg of streptomycin. PC3 cells were cultivated in F12K, 2 mM L-glutamine, 5% FBS, 1 U/ml of penicillin and 1 μg of streptomycin. PC3, Colo205, and HCT116 cells were seeded in 96-wells plate at 1000, 5000 and 6000 cells per well respectively. A2780 and HEP3B cells were seeded in 96-wells plate at 4000 cells per well respectively. The plates were incubated at 37° C., 5% CO2, for 24 h. Cells were treated with compounds at various concentrations for 96 h. Cell growth was then monitored using CyQUANT® cell proliferation assay (Invitrogen Pte Ltd). Dose response curves were plotted to determine GI50 values for the compounds using XL-fit (ID Business Solution, Emeryville, Calif.). GI50 is defined as the concentration of compound required for 50% inhibition of cell growth.

[3] = Measurement of microsomal stability; type: in vitro ADME; conditions: pooled human liver microsomes, pH 7.4; human liver microsome, 5 μM test compound, 1.0 mg/ml microsomal protein
Experimental: Metabolic stability measurements in the in vitro using liver microsomes aids in the prediction of the in vivo hepatic clearance and the compound stability towards phase I biotransformation reactions mediated by P450 isozymes.
Pooled human liver microsome (HLM was purchased from BD Gentest (BD BioSciences). The incubations consisted of test compound (5 μM) or control compound (Verapamil), NADPH-generating system solution A (25 mM NADP^+, 66 mM glucose-6-phosphate, 66 mM MgCl2 in H2O), NADPH-generating system solution B (40 U/ml glucose-6-phosphate dehydrogenase in 5 mM sodium citrate) and 1.0 mg/ml microsomal protein, respectively, in 100 mM potassium phosphate buffer (pH 7.4). Samples were incubated for 0, 5, 15, 30, 45, 60 min. Reaction was terminated with ice-cold 80% acetonitrile and 20% DMSO. Samples were subsequently centrifuged at 4° C. for 15 min at 2,000 rpm. 100 μL of the supernatant was transferred to the LC-MS Plate for analysis. Before quantitative analysis, the compound was tuned in LC/MS machine to get the optimized MS condition. Liquid chromatography was performed on a Luna C18 column (Phenomenex U.S.A, Torrance, Calif.) (2×50 mm, 5 μM). % of the compound remaining (by area) at each time point is calculated with respect to time 0 min. Plot % remaining against time (min) to obtain the curve and use the Prism software to obtain the t1/2.

[4] = In vivo pharmacokinetic (PK) studies; conditions: mouse, plasma, po; mice, hydrochloric acid salt form (2HCl), 50 mg/kg
Experimental: Compound was dissolved in appropriate solution (saline or DMA and Cremaphor in saline) at 1 mg/ml for intravenous (IV) administration, or in 0.5% methyl cellulose, 0.1% Tween 80 in water at 5 mg/ml for oral administration. Mice were randomized according to body weight, grouped three per time point. Mice were administered single IV dose (10 mg/kg) via tail vein, or single oral dose (50 mg/kg) via gavage. At pre-defined time points (predose, 5 or 10, 30 min, 1, 2, 4, 8, and 24 h), one group of mice was sacrificed by overdose CO2 and blood samples were collected by cardiac puncture. The blood samples were centrifuged immediately for 10 min at 3000 rpm to separate plasma, and plasma was kept frozen at −80° C. until analysis by LC/MS/MS. Before sample analysis, the method was developed for LC/MS/MS assay. The method was validated for signal-response of the calibration standards, auto-sampler stability for ˜15 hours intra-day and inter-day calibration curve using eight calibration standards excluding the blank plasma. QC samples at three different concentrations in triplicates were prepared to determine the accuracy and precision. The extracted QC samples were compared to unextracted samples to determine the extraction efficiency of the analyte. LLOQ was determined by using triplicate samples of 1 ng/mL and 2 ng/mL to obtain accuracy and precision at the low end. Samples were analysed using the validated method. Data was analyzed by the non-compartmental model using WinNolin 4.0 software (Pharsight, Mountain View, Calif., USA). The mean values for the plasma compound concentration-time profiles were used in mouse PK study.
The PK parameter AUC0-last providing the information on the overall exposure of the drug in vivo is one of the key PK/PD parameters that helps in predicting the efficacy of an anti-cancer compound. The higher the AUC value, the better will be the in vivo efficacy of the compound at similar in vitro potency.

## CCCc1nc2cc(/C=C/C(=O)NO)ccc2n1CCNCCC(C)(C)C [Compound 130, 3-{1-[2-(3,3-Dimethyl-butylamino)-ethyl]-2-propyl-1H-benzoimidazol-5-yl}-N-hydroxy-acrylamide]
[1]
  GI50: 150 nM
[2]
  GI50: < 500 nM
[3]
  half-life at 5 μM: > 30 min
[4]
  AUC(0-t): 1050 ng·h/mL
